Test results from patent US20250194968A1, “ADMINISTRATION OF AMINOLEVULINIC ACID WITH DELAYED FLUORESCENT IMAGING TO MAP AND QUANTIFY TISSUE OXYGENATION LEVELS” (THE TRUSTEES OF DARTMOUTH COLLEGE, priority 2022, published 2025).

Test system: subcutaneous human pancreatic adenocarcinoma BxPC3 tumors
Experiment: PpIX delayed/immediate fluorescence imaging of subcutaneous tumors after ALA injection, with palpation
Format: in vivo
Conditions: nude mice with BxPC3 tumors, ALA 250 mg/kg intraperitoneal, imaged 6 hours later
Protocol: Nude female mice were inoculated with a single subcutaneous injection of 10^6 human pancreatic adenocarcinoma BxPC3 cells, under the skin on the flank. After approximately 3 weeks of growth, animals were chosen for imaging when their tumor diameter reached approximately 8 mm in size. These nude mice were used in the imaging experiments described below.
ALA was either intraperitoneally injected (250 mg/kg) 6 hours prior to imaging, or topically applied onto a region of interest 3 hours before imaging as Ameluz (Trademark of Biofrontera AG, Leverkusen, Germany), ointment containing 10% ALA, as further described below
Images of tumor in the live mice were acquired using a highly sensitive intensified CMOS camera synchronized with a 50-mW average output power, 635 nm, modulated diode laser using 20 microsecond (μs) pulses at repetition rate of 500 hertz (Hz) providing pulsed fluorescence excitation light. […] Irradiance were measured using a power meter with a photodiode power sensor.
The intensifier of the intensified CMOS camera was directly controlled by circuitry synchronized to the laser pulses. […] Fifty laser pulse gate periods were integrated in each image frame, alternating between immediate fluorescence and delayed fluorescence for even and odd frames, respectively. […]

SMILES: NCC(=O)CCC(=O)O [ALA, aminolevulinic acid]
- duration of excellent tumor contrast from palpation-induced deoxygenation (after palpation): up to 5 min
- contrast in a pancreatic cancer model relative to surrounding normal oxygenated tissues (delayed fluorescence and DF/IF ratio) (in some examples): 5 factor
